Results taken from ChEMBL document CHEMBL1135558, “Chemical modification of reveromycin A and its biological activities” (Bioorg Med Chem Lett, 2002).

What was measured:
NRK [1] = assay: Morphological reversion of srcts-NRK cells concentration at 100 ug/mL; assay type: functional, Rattus norvegicus
NRK [2] = assay: In vitro inhibition of protein synthesis in srcts-NRK cell at 1 ug/mL; assay type: functional; conditions: Rattus norvegicus
[3] = target: T1, Isoleucyl-tRNA synthetase (Rattus norvegicus, UniProt O35880); assay: Inhibitory concentration against Isoleucyl-tRNA synthetase (IleRS) activity
T1 sequence (O35880 whole entry): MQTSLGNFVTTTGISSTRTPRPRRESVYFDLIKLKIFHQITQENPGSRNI

NRK [4] = assay: Morphological reversion of src-transformed-NRK cells at 10 ug/mL; assay type: functional, Rattus norvegicus
NRK [5] = assay: In vitro inhibition of protein synthesis in src-transformed-NRK cell at 1 ug/mL; assay type: functional; conditions: Rattus norvegicus
NRK [6] = assay: Morphological reversion of src-transformed-NRK cells at 20 ug/mL; assay type: functional, Rattus norvegicus
NRK [7] = assay: Morphological reversion of src-transformed-NRK cells at 5 ug/mL; assay type: functional, Rattus norvegicus
NRK [8] = assay: Morphological reversion of src-transformed-NRK cells at 50 ug/mL; assay type: functional
NRK [9] = assay: Morphological reversion of src-transformed-NRK cells at 1 ug/mL; assay type: functional, Rattus norvegicus
NRK [10] = assay: Morphological reversion of src-transformed-NRK cells at 0.1 ug/mL; assay type: functional, Rattus norvegicus
NRK [11] = assay: Morphological reversion of src-transformed-NRK cells at 2 ug/mL; assay type: functional, Rattus norvegicus
NRK [12] = assay: Morphological reversion of src-transformed-NRK cells at 5 ug/mL; 20-50; assay type: functional, Rattus norvegicus

Compound | Reversion (NRK [1]) [%] | inhibition at 1 µg/mL (NRK [2]) [%] | IC50 [3] [nM] | Reversion (NRK [4]) [%] | inhibition at 1 µg/mL (NRK [5]) [%] | Reversion (NRK [6]) [%] | Reversion (NRK [7]) [%] | Reversion (NRK [8]) [%] | Reversion (NRK [9]) [%] | Reversion (NRK [10]) [%] | Reversion (NRK [11]) [%] | Reversion (NRK [12]) [%]
CCCC[C@]1([C@H](/C=C/C(C)=C/C(=O)O)OC(=O)CCC(=O)O)CC[C@]2(CC[C@H](C)[C@@H](C/C=C(C)/C=C/[C@H](O)[C@@H](C)/C=C/C(=O)O)O2)O1 [REVEROMYCIN B] | <20 | < 20 | < 1510 | – | – | – | – | – | – | – | – | –
CCCC[C@@]1(OC(=O)CCC(=O)O)CC[C@]2(CC[C@H](C)[C@@H](CCC(C)CC[C@H](O)[C@@H](C)CCC(=O)O)O2)O[C@H]1CCC(C)CC(=O)O (stereo partly drawn) | <20 | < 20 | < 1490 | – | – | – | – | – | – | – | – | –
CCCC[C@@]1(OC(=O)CCC(=O)O)CC[C@]2(CC[C@H](C)[C@@H](C/C=C(C)/C=C/[C@H](OC(C)=O)[C@@H](C)/C=C/C(=O)O)O2)O[C@H]1/C=C/C(C)=C/C(=O)O | >80 | – | < 1420 | 50 | < 20 | >80 | <20 | >80 | – | – | – | –
CCCC[C@@]1(O)CC[C@]2(CC[C@H](C)[C@@H](C/C=C(C)/C=C/[C@H](O)[C@@H](C)/C=C/C(=O)O)O2)O[C@H]1/C=C/C(C)=C/C(=O)O | <20 | > 80 | 74.4 | – | – | – | – | – | – | – | – | –
CCCC[C@@]1(OCSC)CC[C@]2(CC[C@H](C)[C@@H](C/C=C(C)/C=C/[C@H](O)[C@@H](C)/C=C/C(=O)O)O2)O[C@H]1/C=C/C(C)=C/C(=O)OC | <20 | < 20 | < 1580 | – | – | – | – | – | – | – | – | –
CCCC[C@@]1(OC(=O)CCC(=O)OC)CC[C@]2(CC[C@H](C)[C@@H](C/C=C(C)/C=C/[C@H](O)[C@@H](C)/C=C/C(=O)OC)O2)O[C@H]1/C=C/C(C)=C/C(=O)OC | <20 | < 20 | < 1420 | – | – | – | – | – | – | – | – | –
CCCC[C@]1([C@@H](O)/C=C/C(C)=C/C(=O)O)CC[C@]2(CC[C@H](C)[C@@H](C/C=C(C)/C=C/[C@H](O)[C@@H](C)/C=C/C(=O)O)O2)O1 | <20 | < 20 | < 1780 | – | – | – | – | – | – | – | – | –
CCCC[C@@]1(OCSC)CC[C@]2(CC[C@H](C)[C@@H](C/C=C(C)/C=C/[C@H](O)[C@@H](C)/C=C/C(=O)O)O2)O[C@H]1/C=C/C(C)=C/C(=O)O | >80 | > 80 | 353 | <20 | – | – | – | 50 | – | – | – | –
CCCC[C@]1([C@H](/C=C/C(C)=C/C(=O)O)OC)CC[C@]2(CC[C@H](C)[C@@H](C/C=C(C)/C=C/[C@H](O)[C@@H](C)/C=C/C(=O)O)O2)O1 | <20 | < 20 | < 1740 | – | – | – | – | – | – | – | – | –
CCCC[C@@]1(OC(=O)CCC(=O)OC)CC[C@]2(CC[C@H](C)[C@@H](C/C=C(C)/C=C/[C@H](O)[C@@H](C)/C=C/C(=O)OC)O2)O[C@H]1/C=C/C(C)=C/C(=O)O | >80 | < 20 | 1450 | >80 | – | – | >80 | – | >80 | 20 | >80 | –
CCCC[C@@]1(OC(=O)CCC(=O)O)CC[C@]2(CC[C@H](C)[C@@H](C/C=C(C)/C=C/[C@H](O)[C@@H](C)/C=C/C(=O)O)O2)O[C@H]1/C=C/C(C)=C/C(=O)O [REVEROMYCIN A] | >80 | > 80 | 1.97 | 50 | – | >80 | – | >80 | – | – | <20 | 20
CCCC[C@@]1(OC)CC[C@]2(CC[C@H](C)[C@@H](C/C=C(C)/C=C/[C@H](O)[C@@H](C)/C=C/C(=O)O)O2)O[C@H]1/C=C/C(C)=C/C(=O)O | >80 | > 80 | 44.4 | 50 | – | 50 | – | >80 | – | – | – | –
CCCC[C@@]1(OC(=O)CCC(=O)O)CC[C@]2(CC[C@H](C)[C@@H](C/C=C(C)/C=C/[C@H](OC)[C@@H](C)/C=C/C(=O)O)O2)O[C@H]1/C=C/C(C)=C/C(=O)O | <20 | 50 | 245 | – | – | – | – | – | – | – | – | –
